Results taken from article PMC7728077, “Double-Headed Cationic Lipopeptides: An Emerging Class of Antimicrobials” (International Journal of Molecular Sciences, 2020).
Values after ≈ are worked out from the molar mass of the structure shown. Square brackets hold non-standard residues; d marks the D form. Peptide text beside a SMILES is read from it. * marks the point of attachment. Palmitoyl = CCCCCCCCCCCCCCCC(=O)*; Dab = NCC[C@H](N)C(=O)O

Key:
[1] = test system: 46BR.1N human skin fibroblasts cell line; format: cell-based
Procedure: (§1) Cytotoxicity was determined towards immortalized human HaCaT keratinocytes (DKFZ, Heidelberg, Germany), transformed human fibroblast cell line 46BR.1N (ECACC), as well as the human melanoma (A375), human lung cancer (A549), human colon cancer (HCT-116), human colon adenocarcinoma (HT-29), and human prostate cancer (LNCaP) cell lines. Keratinocytes and fibroblast cell lines were maintained in a humidified atmosphere with 5% CO2 at 37 °C in a Dulbecco’s modified Eagle’s medium (DMEM) (Sigma-Aldrich, Steinheim, Germany), which contained 4500 mg/L of glucose, 584 mg/L of L-glutamine, sodium pyruvate, and sodium bicarbonate. Additionally, the medium was supplemented with 10% of fetal bovine serum (FBS) (Sigma-Aldrich, Steinheim, Germany), 100 U/mL of penicillin, and 100 µg/mL of streptomycin (Sigma-Aldrich, Steinheim, Germany). The cells were grown in culture dishes (BD, Franklin Lakes, NJ, USA) and the medium was changed every 2 days. Afterwards, the fibroblasts and keratinocytes were harvested using a standard trypsin-EDTA solution, centrifuged, suspended in a medium supplemented with 10% FBS and seeded at a density of 5500–6000 cells per well into 96-well plates. After 24 h, the medium was exchanged with a serum- and antibiotic-free DMEM. The next day, serially diluted solutions of the lipopeptides prepared in a fresh FBS- and antibiotic-free medium were added to the wells. The potential cytotoxic effect of the compounds was analyzed over the concentration range of 1–25 µg/mL. After addition of the lipopeptides, cells were incubated for the next 24 h. At the end of the experiment, the cells were treated with 20 µL of MTT (5 mg/mL in PBS). After 3 h at 37 °C under 5% CO2, the medium was discarded and replaced by 6 mM HCl in isopropanol. As soon as the purple crystals of formazan were completely solubilized, absorbance was read at 570 nm with a plate reader. The optical density of the wells without the tested compounds were regarded as the positive control. The MTT assay was performed in triplicate for each cell line.
(§2) Determination of the half-maximum inhibitory concentrations (IC50) was done using GraphPad Prism 5 software (San Diego, CA, USA) based on the dose-response curves. The logarithm of the different concentrations of compounds was plotted against the percentage of inhibition in cell viability as compared with control probes, treated as 100%.

[2] = test system: HaCaT human keratinocyte cell line; format: cell-based
Procedure: as §1, §2

[3] = Analytical RP-HPLC retention time as measure of hydrophobicity; format: physicochemical; conditions: Jupiter 4 µ Proteo 90 Å 250 x 4.60 mm, linear gradient 15-90% B in A in 30 min, 1 ml/min, A 0.1% aqueous TFA, B 80% acetonitrile in water with 0.1% TFA
Procedure: The lipopeptides were purified in a Waters RP-HPLC preparative system (Jupiter 4 µ Proteo column, 90 Å, 250 × 10 mm) with the linear gradient of solution B in A from 30% to 60% (A, 0.1% solution of TFA in water and B, 80% solution of ACN in water containing 0.1% of TFA) in 40 min with a flow rate of 5 mL/min. Final purity of the analogues (at least 97%) was determined using an analytical RP-HPLC Shimadzu system (Jupiter 4 µ Proteo column, 90 Å, 250 × 4.60 mm) with the linear gradient of solution B in A from 15% to 90% in 30 min with a flow rate of 1 mL/min. Identity of lipopeptides was confirmed by MALDI-TOF mass spectrometry. Analytical data of the synthesized analogues are presented in Table S1 (Supplementary Materials). ^a linear gradient 15-90% of B in A for 30 min, flow rate 1 ml/min, RP-HPLC Shimadzu system, column: Jupiter 4 µ Proteo, 90 Å, 250 x 4.60 mm; A – 0.1% aqueous TFA solution, B – 80% solution of acetonitrile in water with 0.1% of TFA; ^b molecular masses were determined using MALDI-TOF mass spectrometer.

[4] = test system: Staphylococcus epidermidis ATCC 1922; format: cell-based; conditions: ATCC 1922, 18 h
From the text: (§3) Fmoc-Lys(Boc)-OH and the coupling reagents were purchased from GL Biochem (Shanghai, China). Palmitoyl Fmoc-amino acids: Fmoc-Lys(C16)-OH, Fmoc-Orn(C16)-OH, Fmoc-Dab(C16)-OH, and Fmoc-Dap(C16)-OH were acquired from Iris Biotech GmbH (Marktredwitz, Germany). The resin and solvents were purchases from Rapp Polymere (Tübingen, Germany), Merck (Darmstadt, Germany), and Avantor Performance Materials (Gliwice, Poland), respectively. The phospholipids, 1,2-dipalmitoyl-sn-glycero-3-phosphocholine (DPPC), 1,2-dipalmitoyl-sn-glycero-3-[phospho-rac-(1-glycerol)] (DPPG), 1-palmitoyl-2-oleoyl-glycero-3-phosphocholine (POPC) and 1-palmitoyl-2-oleoyl-sn-glycero-3-[phospho-rac-(1-glycerol)] (POPG), were purchased from Avanti Polar Lipids (Alabaster, AL, USA). LPS E. coli 055:B5 and phosphate buffered saline (PBS) were from Sigma-Aldrich (Steinheim, Germany). The Mueller Hinton broth was bought from BIOCORP (Warsaw, Poland) and the RPMI-1640 medium from Sigma-Aldrich (Steinheim, Germany). LIVE/DEAD™ BacLight™ Bacterial Viability Kit was obtained from Thermo Fisher Scientific (Waltham, MA, USA). Bacterial strains (Escherichia coli ATCC 25922, Pseudomonas aeruginosa ATCC 9027, Staphylococcus aureus ATCC 25923, Staphylococcus epidermidis ATCC 1922) and the fungal strain (Candida albicans ATCC 10231) were obtained from the Polish Collection of Microorganisms, Polish Academy of Science, Institute of Immunology and Experimental Therapy, Wroclaw, Poland.
(§4) Antimicrobial activity of the lipopeptides was determined according to the broth microdilution guidelines recommended by the Clinical and Laboratory Standards Institute (CLSI). Minimum inhibitory concentrations (MICs) were assumed as the lowest concentration of the peptide solution, at which the visible growth of microorganisms was inhibited. MIC values of lipopeptides against bacteria were evaluated in the Mueller–Hinton broth and against fungus in the RPMI-1640 medium. Initial inoculums of bacteria and fungus (with concentrations of 5 × 10^5 CFU/mL and 2 × 10^3 CFU/mL, respectively) were exposed to increasing concentrations of lipopeptides solutions over the range of 1–512 µg/mL. […] The 96-well plates filled with appropriate inoculums and the tested compounds were incubated for 18 h at 37 °C. Presented values are the mean of the results obtained in three independent experiments.

[5] = test system: Staphylococcus aureus ATCC 25923; format: cell-based; conditions: ATCC 25923, 18 h
From the text: as §3, §4

[6] = test system: Candida albicans ATCC 10231; format: cell-based; conditions: ATCC 10231, 18 h
From the text: as §3, §4

[7] = test system: Escherichia coli ATCC 25922; format: cell-based; conditions: ATCC 25922, 18 h
From the text: as §3, §4

[8] = test system: Pseudomonas aeruginosa ATCC 9027; format: cell-based; conditions: ATCC 9027, 18 h
From the text: as §3, §4

SMILES: CCCCCCCCCCCCCCCC(=O)NCC[C@H](NC(=O)[C@@H](N)CCCCN)C(=O)N[C@@H](CCCCN)C(N)=O [K(DabC16)K-NH2] (H-Lys-[Dab](Palmitoyl)-Lys-NH2)
- IC50, 46BR.1N (24h) [1]: 9.76 ± 0.70 µg/mL (≈ 15.9 µM)
- IC50, HaCaT (24h) [2]: 7.96 ± 2.49 µg/mL (≈ 13 µM)
- Retention time (used as measure of hydrophobicity) [3]: 23.974 min
- MIC, S. epidermidis [4]: 8 µg/mL (≈ 13.1 µM)
- MIC, S. aureus [5]: 8 µg/mL (≈ 13.1 µM)
- MIC, C. albicans [6]: 16 µg/mL (≈ 26.1 µM)
- MIC, E. coli [7]: 8 µg/mL (≈ 13.1 µM)
- MIC, P. aeruginosa [8]: 16 µg/mL (≈ 26.1 µM)

SMILES: CCCCCCCCCCCCCCCC(=O)NCCCC[C@H](NC(=O)[C@@H](N)CCCCN)C(=O)N[C@@H](CCCCN)C(N)=O [K(KC16)K-NH2]
- IC50, 46BR.1N (24h) [1]: 9.36 ± 2.31 µg/mL (≈ 14.6 µM)
- IC50, HaCaT (24h) [2]: 9.08 ± 2.28 µg/mL (≈ 14.2 µM)
- Retention time (used as measure of hydrophobicity) [3]: 24.731 min
- MIC, S. epidermidis [4]: 8 µg/mL (≈ 12.5 µM)
- MIC, S. aureus [5]: 4 µg/mL (≈ 6.25 µM)
- MIC, C. albicans [6]: 8 µg/mL (≈ 12.5 µM)
- MIC, E. coli [7]: 8 µg/mL (≈ 12.5 µM)
- MIC, P. aeruginosa [8]: 16 µg/mL (≈ 25 µM)

SMILES: CCCCCCCCCCCCCCCC(=O)NCCC[C@H](NC(=O)[C@@H](N)CCCCN)C(=O)N[C@@H](CCCCN)C(N)=O [K(OC16)K-NH2]
- IC50, 46BR.1N (24h) [1]: 9.02 ± 0.69 µg/mL (≈ 14.4 µM)
- IC50, HaCaT (24h) [2]: 6.25 ± 3.08 µg/mL (≈ 9.98 µM)
- Retention time (used as measure of hydrophobicity) [3]: 24.204 min
- MIC, S. epidermidis [4]: 8 µg/mL (≈ 12.8 µM)
- MIC, S. aureus [5]: 8 µg/mL (≈ 12.8 µM)
- MIC, C. albicans [6]: 8 µg/mL (≈ 12.8 µM)
- MIC, E. coli [7]: 8 µg/mL (≈ 12.8 µM)
- MIC, P. aeruginosa [8]: 8 µg/mL (≈ 12.8 µM)

SMILES: CCCCCCCCCCCCCCCC(=O)NCCCC[C@H](NC(=O)[C@H](CCCCN)NC(=O)[C@@H](N)CCCCN)C(=O)N[C@@H](CCCCN)C(=O)N[C@@H](CCCCN)C(N)=O [KK(KC16)KK-NH2] (H-KKK(Palmitoyl)KK-NH2)
- IC50, 46BR.1N (24h) [1]: 7.56 ± 1.31 µg/mL (≈ 8.43 µM)
- IC50, HaCaT (24h) [2]: 11.92 ± 1.57 µg/mL (≈ 13.3 µM)
- Retention time (used as measure of hydrophobicity) [3]: 21.745 min
- MIC, S. epidermidis [4]: 8 µg/mL (≈ 8.93 µM)
- MIC, S. aureus [5]: 8 µg/mL (≈ 8.93 µM)
- MIC, C. albicans [6]: 16 µg/mL (≈ 17.9 µM)
- MIC, E. coli [7]: 4 µg/mL (≈ 4.46 µM)
- MIC, P. aeruginosa [8]: 16 µg/mL (≈ 17.9 µM)
